From PubChem BioAssay (NCI)
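Where inhibition never reached the appropriate level, the endpoint shown equals the highest concentration tested. Otherwise, values were interpolated linearly from a five-concentration, 48-hour dose response in 96-well plates. The concentration for 50% growth inhibition is given as GI50. TGI: concentration producing complete growth inhibition.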

How the values were obtained:
Assay in all cases: DTP human tumour cell line panel, 48 h
DLD-1 colon = test system: DLD-1 colon
DMS 114 small cell lung = test system: DMS 114 small cell lung
DMS 273 small cell lung = test system: DMS 273 small cell lung
HOP-18 NSCLC = test system: HOP-18 NSCLC
KM20L2 colon = test system: KM20L2 colon
LXFL 529 NSCLC = test system: LXFL 529 NSCLC
M19-MEL melanoma = test system: M19-MEL melanoma
SNB-78 CNS = test system: SNB-78 CNS
XF 498 CNS = test system: XF 498 CNS
MCF7 breast = test system: MCF7 breast
MDA-MB-231 breast = test system: MDA-MB-231 breast
NCI/ADR-RES ovarian = test system: NCI/ADR-RES ovarian
PC-3 prostate = test system: PC-3 prostate
T-47D breast = test system: T-47D breast

SMILES	TGI (DLD-1 colon)	TGI (DMS 114 small cell lung)	TGI (DMS 273 small cell lung)	TGI (HOP-18 NSCLC)	TGI (KM20L2 colon)	TGI (LXFL 529 NSCLC)	TGI (M19-MEL melanoma)	TGI (SNB-78 CNS)	TGI (XF 498 CNS)	TGI (MCF7 breast)	TGI (MDA-MB-231 breast)	TGI (NCI/ADR-RES ovarian)	TGI (PC-3 prostate)	GI50 (T-47D breast)	TGI (T-47D breast)
COCOC1CCCC[C@@]1(OCCOCCO[C@@]1(c2ccccc2)CCCC[C@H]1OCOC)c1ccccc1 (stereo partly drawn)	> 100 µM	> 100 µM	> 100 µM	> 100 µM	> 100 µM	> 100 µM	> 100 µM	> 100 µM	> 100 µM						
N#Cc1ccccc1Sc1ccccc1N	> 100 µM	> 100 µM	> 100 µM	> 100 µM		> 100 µM	> 100 µM	> 100 µM	> 100 µM						
CCCC(O)[C@@]1(CC)CC(C)C(O)(C2(C)C[C@H](C)[C@@H](C(CC)C(=O)C(C)[C@@H](O)[C@H](C)C3OC(O)(C(CC)C(=O)O)[C@@H](C)C(O)C3CC)O2)O1 (stereo partly drawn)	8.86 µM	1.08 µM	5.93 µM	23.9 µM	4.13 µM	3.91 µM	2.17 µM	31.7 µM	2.43 µM	2.17 µM	2.11 µM	1.82 µM	1.76 µM		
CCCCCCCCCCCCCCCC(=O)OCC1OC(n2cc(F)c(=O)[nH]c2=O)C(NC(=O)OCc2ccccc2)C(O)C1O (stereo not drawn)		33.4 µM	32.4 µM	37.8 µM	41.9 µM	31.5 µM	40.5 µM	52.1 µM	31.1 µM						
CNC(=O)OCc1nc(SSc2nc(COC(=O)NC)c(COC(=O)NC)n2C)n(C)c1COC(=O)NC	> 100 µM	> 100 µM	> 100 µM	> 100 µM	> 100 µM	> 100 µM	> 100 µM	> 100 µM	> 100 µM						
O=C([O-])c1ccc([I+]c2ccccc2)cc1	> 100 µM	> 100 µM	> 100 µM	> 100 µM	> 100 µM	> 100 µM	> 100 µM	> 100 µM	> 100 µM						
O=C(O)c1ccccc1C(=O)c1ccco1	> 100 µM	> 100 µM	> 100 µM	> 100 µM	> 100 µM		> 100 µM	> 100 µM	> 100 µM						
O=C1C=CC2(O)OCC3C=C4O[C@@H]5OC6(CCCCC6)O[C@@H]5C4[C@@H]2[C@@H]13 (stereo partly drawn)	50.6 µM	69.2 µM	> 100 µM	> 100 µM	> 100 µM	29.7 µM	54.9 µM	83.3 µM	72.6 µM						
C/C(=N\NC(=S)N1CCC1)c1ccccn1	> 100 µM		1.82 µM	> 100 µM	> 100 µM	> 100 µM	> 100 µM	> 100 µM	> 100 µM	0.00635 µM	> 100 µM		> 100 µM	0.0395 µM	> 100 µM
CC(C)N(C(=O)C12C3C4C1C1C4(C#N)C3C12C(=O)O)C(C)C (stereo not drawn)	> 100 µM	> 100 µM	> 100 µM	> 100 µM	> 100 µM	> 100 µM	> 100 µM	> 100 µM	> 100 µM						
CC1CCCP(=O)(c2ccccc2)CCC1 (stereo not drawn)	> 100 µM	> 100 µM	> 100 µM	96.4 µM	> 100 µM	> 100 µM	> 100 µM	> 100 µM	> 100 µM						
O=[N+]([O-])c1cccnc1S(=O)(=O)c1ccccc1	7.27 µM	8.53 µM	21.3 µM	25.7 µM	30.3 µM	5.87 µM	27.3 µM	44 µM	25.8 µM						
CCCCCCCCCC1CC(=O)OC23CCCC(=O)C12O3 (stereo not drawn)	> 100 µM	> 100 µM	> 100 µM	> 100 µM	> 100 µM	> 100 µM	> 100 µM	> 100 µM	> 100 µM						
COc1ccccc1/C=C(\NC(=O)c1ccccc1)c1nc2ccc(Cl)cc2[nH]1	88.9 µM	52.7 µM	> 100 µM	82.6 µM	> 100 µM	62.9 µM	> 100 µM	> 100 µM	89.5 µM						
CCOC1c2nc3ccccc3nc2-c2ccccc2N1C(C)=O (stereo not drawn)	> 100 µM	> 100 µM	> 100 µM	> 100 µM	> 100 µM	> 100 µM	> 100 µM	> 100 µM	> 100 µM						
Cc1ccc(-n2c3nc(=O)n(C)c(=O)c-3nc3ccccc32)c(C)c1	39.9 µM		18.5 µM	20.1 µM	17.6 µM	24.8 µM	3.33 µM	44.5 µM	26 µM						
